# Biological target: T1, hNaV1.7 (Homo sapiens, UniProt Q15858)
# T1 construct: expressed in transfected cells
# Assay: Patch voltage clamp electrophysiology (EP), Syncropatch 384PE, Nav1.7 in CHO cells;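 also: Nav1.7 stably expressed from cDNA in CHO cells, holding potential of −50 mV kept for the entire experiment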
# Format: cell-based
# Conditions: hNaV1.7 EP_SP, holding potential −50 mV, inhibition based on 7.5 min compound incubation
# T1 sequence (Q15858 1-1977 isoform Q15858-3): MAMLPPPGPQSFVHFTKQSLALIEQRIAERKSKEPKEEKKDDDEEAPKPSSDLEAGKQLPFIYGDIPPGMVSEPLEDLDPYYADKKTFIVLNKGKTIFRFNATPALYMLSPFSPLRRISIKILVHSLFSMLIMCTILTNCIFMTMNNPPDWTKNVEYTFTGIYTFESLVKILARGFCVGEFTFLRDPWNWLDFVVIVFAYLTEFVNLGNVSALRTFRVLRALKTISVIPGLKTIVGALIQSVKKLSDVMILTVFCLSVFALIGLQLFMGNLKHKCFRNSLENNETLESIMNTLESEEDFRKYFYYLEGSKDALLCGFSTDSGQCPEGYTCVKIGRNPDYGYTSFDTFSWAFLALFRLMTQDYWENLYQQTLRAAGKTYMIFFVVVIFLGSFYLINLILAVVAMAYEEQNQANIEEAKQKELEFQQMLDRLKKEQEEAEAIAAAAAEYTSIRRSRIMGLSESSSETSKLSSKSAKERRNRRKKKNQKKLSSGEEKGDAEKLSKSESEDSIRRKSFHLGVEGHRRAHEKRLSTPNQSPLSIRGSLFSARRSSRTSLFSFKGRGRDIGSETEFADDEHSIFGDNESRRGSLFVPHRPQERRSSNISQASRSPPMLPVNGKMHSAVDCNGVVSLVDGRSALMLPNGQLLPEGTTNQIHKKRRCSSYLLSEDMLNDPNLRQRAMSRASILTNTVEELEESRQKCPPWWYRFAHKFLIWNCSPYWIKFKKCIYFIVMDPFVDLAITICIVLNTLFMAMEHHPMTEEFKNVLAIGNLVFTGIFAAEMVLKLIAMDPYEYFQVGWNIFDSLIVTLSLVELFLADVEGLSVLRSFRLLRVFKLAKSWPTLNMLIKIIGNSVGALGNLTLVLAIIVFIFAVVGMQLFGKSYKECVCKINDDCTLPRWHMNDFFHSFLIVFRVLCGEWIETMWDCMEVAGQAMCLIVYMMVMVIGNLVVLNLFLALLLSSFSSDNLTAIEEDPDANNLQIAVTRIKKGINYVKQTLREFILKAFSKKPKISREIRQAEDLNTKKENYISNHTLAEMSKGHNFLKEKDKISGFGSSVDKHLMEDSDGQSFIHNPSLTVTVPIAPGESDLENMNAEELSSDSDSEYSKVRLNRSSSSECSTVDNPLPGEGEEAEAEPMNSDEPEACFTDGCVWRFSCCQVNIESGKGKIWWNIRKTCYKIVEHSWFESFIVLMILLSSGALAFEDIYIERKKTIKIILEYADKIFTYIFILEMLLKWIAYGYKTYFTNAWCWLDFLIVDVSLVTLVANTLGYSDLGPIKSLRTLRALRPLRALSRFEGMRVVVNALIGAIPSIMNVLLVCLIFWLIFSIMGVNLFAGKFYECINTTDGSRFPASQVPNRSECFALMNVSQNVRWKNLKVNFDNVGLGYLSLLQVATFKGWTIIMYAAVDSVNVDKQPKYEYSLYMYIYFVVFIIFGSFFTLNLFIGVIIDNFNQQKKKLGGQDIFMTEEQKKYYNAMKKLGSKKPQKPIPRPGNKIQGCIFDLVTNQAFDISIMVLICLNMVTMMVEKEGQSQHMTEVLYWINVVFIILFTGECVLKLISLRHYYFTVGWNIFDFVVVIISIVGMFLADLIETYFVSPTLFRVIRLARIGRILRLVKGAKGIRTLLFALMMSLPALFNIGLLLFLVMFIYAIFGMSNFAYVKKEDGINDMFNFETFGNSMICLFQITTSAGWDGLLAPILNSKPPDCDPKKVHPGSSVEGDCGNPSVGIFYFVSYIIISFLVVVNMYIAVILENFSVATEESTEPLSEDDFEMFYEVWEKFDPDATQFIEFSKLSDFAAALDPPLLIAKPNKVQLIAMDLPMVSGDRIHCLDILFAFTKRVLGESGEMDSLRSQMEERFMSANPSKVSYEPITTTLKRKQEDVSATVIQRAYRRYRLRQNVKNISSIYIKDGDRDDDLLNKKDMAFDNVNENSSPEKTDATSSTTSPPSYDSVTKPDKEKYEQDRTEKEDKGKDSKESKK
row,Structure (SMILES),IC50
1,"COc1cc(-c2cccc(C(F)(F)F)c2)c(F)cc1N1C(=O)CO[C@H]2CN(S(=O)(=O)Nc3noc4ccc(C5CC5)cc34)CC[C@@H]21 (single isomer, unassigned) [Example 94]",240 nM
2,"COc1cc(-c2cccc(C(F)(F)F)c2)c(F)cc1N1C(=O)CO[C@@H]2CN(S(=O)(=O)Nc3noc4ccc(C5CC5)cc34)CC[C@H]21 (single isomer, unassigned) [Example 93]",110 nM

# Same assay, conditions: holding potential −50 mV, inhibition based on 7.5 min compound incubation, read-out: hNaV1.7 EP_SP
row,Structure (SMILES),IC50
1,"O=C(NS(=O)(=O)c1ccc(OC(F)(F)F)cc1Cl)c1cc(Cl)c(OCC2CCCC2)cc1F [Example 293, 5-chloro-N-((2-chloro-4-(trifluoromethoxy)phenyl)sulfonyl)-4-(cyclopentylmethoxy)-2-fluorobenzamide]",850 nM
2,"O=C(NS(=O)(=O)c1ccccc1F)c1cc(Cl)c(OCC2CCCC2)cc1F [Example 241, 5-chloro-4-(cyclopentylmethoxy)-2-fluoro-N-((2-fluorophenyl)sulfonyl)benzamide]",65 nM
3,"CN(C)[C@H]1CCCC[C@@H]1Oc1ccc(S(=O)(=O)Nc2nc3ccc(OCC4CCCC4)cc3s2)c(F)c1 [Example 97, N-(6-(cyclopentylmethoxy)benzo[d]thiazol-2-yl)-4-(((1S,2S)-2-(dimethyl-amino)cyclohexyl)oxy)-2-fluorobenzenesulfonamide]",20 nM
4,"CC(C)N1CC(OC2CCN(S(=O)(=O)NC(=O)c3cc(Cl)c(OCC4CCCC4)cc3F)CC2)C1 [Example 10, 5-chloro-4-(cyclopentylmethoxy)-2-fluoro-N-((4-((1-isopropylazetidin-3-yl)oxy)piperidin-1-yl)sulfonyl)benzamide]",31 nM
5,"O=C(NS(=O)(=O)c1ccc(OCc2ccc(F)cc2)cc1)c1cc(Cl)c(OCC2CCCC2)cc1F [Example 319, 5-chloro-4-(cyclopentylmethoxy)-2-fluoro-N-((4-((4-fluorobenzyl)oxy)phenyl)sulfonyl)benzamide]",110 nM
6,"O=C(NS(=O)(=O)c1ccc2ccccc2c1F)c1cc(Cl)c(OCC2CCCC2)cc1F [Example 278, 5-chloro-4-(cyclopentylmethoxy)-2-fluoro-N-((1-fluoronaphthalen-2-yl)sulfonyl)benzamide]",960 nM
7,"COc1cc(COc2ccc(S(=O)(=O)NC(=O)c3cc(Cl)c(OCC4CCCC4)cc3F)cc2)cc(OC)c1 [Example 306, 5-chloro-4-(cyclopentylmethoxy)-N-((4-((3,5-dimethoxy-benzyl)oxy)phenyl)sulfonyl)-2-fluorobenzamide]",170 nM
8,"COC[C@@H](C)S(=O)(=O)NC(=O)c1cc(Cl)c(OCC2CCCC2)cc1F (single isomer, unassigned) [Example 249]",110 nM
9,"CN(C)[C@H]1CCCC[C@@H]1Nc1ccc(S(=O)(=O)Nc2nc3ccc(OCC4CCCC4)c(Cl)c3s2)c(F)c1 [Example 333, N-(7-chloro-6-(cyclopentylmethoxy)benzo[d]thiazol-2-yl)-4-(((1S,2S)-2-(dimethylamino)cyclohexyl)amino)-2-fluorobenzenesulfonamide]",65 nM
10,"O=C(NS(=O)(=O)N1CCC(OCc2ccccc2)CC1)c1cc(Cl)c(OCC2CCCC2)cc1F [Example 41, N-((4-(benzyloxy)piperidin-1-yl)sulfonyl)-5-chloro-4-(cyclopentylmethoxy)-2-fluorobenzamide]",170 nM
11,"O=C(NS(=O)(=O)c1ccc(OCC2CCCN2)cc1)c1cc(Cl)c(OCC2CCCC2)cc1F (stereo not shown) [Example 305, 5-chloro-4-(cyclopentylmethoxy)-2-fluoro-N-((4-(pyrrolidin-2-ylmethoxy)phenyl)sulfonyl)benzamide]",360 nM
12,"O=C(NS(=O)(=O)c1ccccc1)c1cc(Cl)c(OCC2CCCC2)cc1F [Example 78, 5-chloro-4-(cyclopentylmethoxy)-2-fluoro-N-(phenylsulfonyl)benzamide]",100 nM
13,"O=C(NS(=O)(=O)N1CCC(OC2CCNC2)CC1)c1cc(C2CC2)c(OCC2CCCC2)cc1F (stereo in doubt) [Example 30, (S)-4-(cyclopentylmethoxy)-5-cyclopropyl-2-fluoro-N-((4-(pyrrolidin-3-yloxy)piperidin-1-yl)sulfonyl)benzamide 2,2,2-trifluoroacetate]",16 nM
14,"C[C@H]1Cc2cc(S(=O)(=O)NC(=O)c3cc(Cl)c(OCC4CCCC4)cc3F)ccc2O1 [Example 270, (S)-5-chloro-4-(cyclopentylmethoxy)-2-fluoro-N-((2-methyl-2,3-dihydrobenzofuran-5-yl)sulfonyl)benzamide]",380 nM
15,"NCc1cccc(COc2ccc(S(=O)(=O)NC(=O)c3cc(Cl)c(OCC4CCCC4)cc3F)cc2)c1 [Example 300, N-((4-((3-(aminomethyl)benzyl)oxy)phenyl)sulfonyl)-5-chloro-4-(cyclopentylmethoxy)-2-fluorobenzamide]",3.2 nM
16,"CN1CC(OC2CCN(S(=O)(=O)NC(=O)c3cc(C4CC4)c(OCc4ccccc4)cc3F)CC2)C1 [Example 236, 4-(benzyloxy)-5-cyclopropyl-2-fluoro-N-((4-((1-methylazetidin-3-yl)oxy)piperidin-1-yl)sulfonyl)benzamide]",39 nM
17,"O=C(NS(=O)(=O)c1ccc(OCc2ccc(F)cc2F)cc1)c1cc(Cl)c(OCC2CCCC2)cc1F [Example 317, 5-chloro-4-(cyclopentylmethoxy)-N-((4-((2,4-difluorobenzyl)oxy)phenyl)sulfonyl)-2-fluorobenzamide]",250 nM
18,"O=C(NS(=O)(=O)c1ccc2c(c1)OCCO2)c1cc(Cl)c(OCC2CCCC2)cc1F [Example 281, 5-chloro-4-(cyclopentylmethoxy)-N-((2,3-dihydrobenzo[b][1,4]dioxin-6-yl)sulfonyl)-2-fluorobenzamide]",320 nM

row,Structure (SMILES),IC50
1,"CC(C)(C)OC(=O)C1CC2C(C1)C2NS(=O)(=O)NC(=O)c1cc(Cl)c(OCC2CCCC2)cc1F (stereo not shown) [Example 327, tert-butyl 6-((N-(5-chloro-4-(cyclopentylmethoxy)-2-fluorobenzoyl)-sulfamoyl)amino)bicyclo[3.1.0]hexane-3-carboxylate]",920 nM
2,"O=C(NS(=O)(=O)N1CCC(OC2CN(C3CC3)C2)CC1)c1cc(Cl)c(OCC2CCCC2)cc1F [Example 12, 5-chloro-4-(cyclopentylmethoxy)-N-((4-((1-cyclopropylazetidin-3-yl)oxy)piperidin-1-yl)sulfonyl)-2-fluorobenzamide]",29 nM
3,"O=C(NS(=O)(=O)c1ccc(OCc2ccccc2)cc1)c1cc(C2CC2)c(OCC2CCCC2)cc1F [Example 83, N-((4-(benzyloxy)phenyl)sulfonyl)-4-(cyclopentylmethoxy)-5-cyclopropyl-2-fluorobenzamide]",92 nM
4,"O=C(NS(=O)(=O)c1ccc(OCc2cc(F)cc(F)c2)cc1)c1cc(Cl)c(OCC2CCCC2)cc1F [Example 307, 5-chloro-4-(cyclopentylmethoxy)-N-((4-((3,5-difluorobenzyl)oxy)phenyl)sulfonyl)-2-fluorobenzamide]",730 nM
5,"O=C(NS(=O)(=O)c1c(F)cccc1F)c1cc(Cl)c(OCC2CCCC2)cc1F [Example 79, 5-chloro-4-(cyclopentylmethoxy)-N-((2,6-difluorophenyl)sulfonyl)-2-fluorobenzamide]",100 nM
6,"CN(C)[C@H]1CCCC[C@@H]1Nc1ccc(S(=O)(=O)Nc2nccs2)c(F)c1 [Example 332, 4-(((1S,2S)-2-(dimethylamino)cyclohexyl)amino)-2-fluoro-N-(thiazol-2-yl)benzenesulfonamide]",220 nM
7,"O=C(NS(=O)(=O)N1CCN2CCNCC2C1)c1cc(Cl)c(OCC2CCCC2)cc1F (stereo not shown) [Example 23, 5-chloro-4-(cyclopentylmethoxy)-2-fluoro-N-((octahydro-2H-pyrazino[1,2-a]pyrazin-2-yl)sulfonyl)benzamide]",110 nM
8,"COC[C@H](C)S(=O)(=O)NC(=O)c1cc(Cl)c(OCC2CCCC2)cc1F (single isomer, unassigned) [Example 248]",760 nM
9,"O=C(NS(=O)(=O)C1CCNC1)c1cc(Cl)c(OCC2CCCC2)cc1F (stereo not shown) [Example 322, 5-chloro-4-(cyclopentylmethoxy)-2-fluoro-N-(pyrrolidin-3-ylsulfonyl)-benzamide]",510 nM
10,"O=C(NS(=O)(=O)N1CCCc2ccccc21)c1cc(Cl)c(OCC2CCCC2)cc1F [Example 14, 5-chloro-4-(cyclopentylmethoxy)-N-((3,4-dihydroquinolin-1(2H)-yl)sulfonyl)-2-fluorobenzamide]",78 nM
11,"O=C(NS(=O)(=O)c1ccc(F)c2ncccc12)c1cc(Cl)c(OCC2CCCC2)cc1F [Example 279, 5-chloro-4-(cyclopentylmethoxy)-2-fluoro-N-((8-fluoroquinolin-5-yl)sulfonyl)benzamide]",500 nM
12,"NC[C@@H]1CN(S(=O)(=O)NC(=O)c2cc(Cl)c(OCC3CCCC3)cc2F)CCO1 (single isomer, unassigned) [Example 24, 2,2,2-trifluoroacetate]",100 nM
13,"CN(C)C1CCCN(c2ccc(S(=O)(=O)NC(=O)c3cc(Cl)c(OCC4CCCC4)cc3F)c(F)c2)C1 (stereo not shown) [Example 205, 5-chloro-4-(cyclopentylmethoxy)-N-((4-(3-(dimethylamino)piperidin-1-yl)-2-fluorophenyl)sulfonyl)-2-fluorobenzamide]",39 nM
14,"C[C@@H]1C[C@H]1S(=O)(=O)NC(=O)c1cc(Cl)c(OCC2CCCC2)cc1F (single isomer, unassigned) [Example 251]",16 nM
15,"N[C@H]1CCCCN(S(=O)(=O)NC(=O)c2cc(Cl)c(OCC3CCCC3)cc2F)C1 (single isomer, unassigned) [Example 219, 2,2,2-trifluoroacetate]",650 nM
16,"O=C(NS(=O)(=O)c1cnn(-c2ccccc2F)c1)c1cc(Cl)c(OCC2CCCC2)cc1F [Example 269, 5-chloro-4-(cyclopentylmethoxy)-2-fluoro-N-((1-(2-fluorophenyl)-1H-pyrazol-4-yl)sulfonyl)benzamide]",940 nM
17,"CN1CCC(S(=O)(=O)NC(=O)c2cc(Cl)c(OCC3CCCC3)cc2F)C1 (stereo not shown) [Example 323, 5-chloro-4-(cyclopentylmethoxy)-2-fluoro-N-((1-methylpyrrolidin-3-yl)sulfonyl)benzamide]",470 nM

# From patent publication US20240228463A1, “SODIUM CHANNEL INHIBITORS AND METHODS OF DESIGNING SAME” (Genentech, Inc., priority 2021, published 2024)
